Test results from PubChem BioAssay AID330 (DTP/NCI, 2004).
“And” between values parts separate entries of the source, which are not always exact repeats. Equal values may be shown once. Inconclusive results and toxic doses are left out. The calls were made as follows: active = survival T/C of 150% or more; inactive = T/C below 125% in these data.

Test system: P388 leukemia ip, CD2F1 mice, survival T/C
Assay: NCI In Vivo Anticancer Drug Screen. Data for tumor model P388 Leukemia (intraperitoneal) in CD2F1 (CDF1) mice
Settings: endpoint: median survival time, higher = longer survival
In short: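 Mice carrying the transplanted tumor received test compound or vehicle. Survival was recorded in each group, and the value is the treated-group measurement divided by that of the vehicle-treated control group.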

[1] = dose: 12.5 mg/kg/injection, schedule: Q01DX009 (ip), vehicle: distilled water + Tween-80
[2] = dose: 25.0 mg/kg/injection, schedule: Q01DX009 (ip), vehicle: distilled water + Tween-80
[3] = dose: 50.0 mg/kg/injection, schedule: Q01DX009 (ip), vehicle: distilled water + Tween-80
[4] = dose: 50.0 mg/kg/injection, schedule: Q01DX009 (ip), vehicle: saline with Tween-80
[5] = dose: 100.0 mg/kg/injection, schedule: Q01DX009 (ip), vehicle: saline with Tween-80
[6] = dose: 200.0 mg/kg/injection, schedule: Q01DX009 (ip), vehicle: saline with Tween-80
[7] = dose: 60.0 mg/kg/injection, schedule: Q01DX005 (ip), vehicle: saline with Tween-80
[8] = dose: 120.0 mg/kg/injection, schedule: Q01DX005 (ip), vehicle: saline with Tween-80
[9] = dose: 100.0 mg/kg/injection, schedule: Q01DX001 (ip), vehicle: saline with Tween-80
[10] = dose: 200.0 mg/kg/injection, schedule: Q01DX001 (ip), vehicle: saline with Tween-80
[11] = dose: 400.0 mg/kg/injection, schedule: Q01DX001 (ip), vehicle: saline with Tween-80
[12] = dose: 50.0 mg/kg/injection, schedule: Q01DX009 (ip), vehicle: saline
[13] = dose: 100.0 mg/kg/injection, schedule: Q01DX009 (ip), vehicle: saline
[14] = dose: 200.0 mg/kg/injection, schedule: Q01DX009 (ip), vehicle: saline
[15] = dose: 240.0 mg/kg/injection, schedule: Q01DX005 (ip), vehicle: saline with Tween-80
[16] = dose: 100.0 mg/kg/injection, schedule: Q04DX002 (ip), vehicle: saline with Tween-80
[17] = dose: 200.0 mg/kg/injection, schedule: Q04DX002 (ip), vehicle: saline with Tween-80
[18] = dose: 400.0 mg/kg/injection, schedule: Q04DX002 (ip), vehicle: saline with Tween-80
[19] = dose: 50.0 mg/kg/injection, schedule: Q01DX005 (ip), vehicle: saline with Tween-80
[20] = dose: 100.0 mg/kg/injection, schedule: Q01DX005 (ip), vehicle: saline with Tween-80
[21] = dose: 200.0 mg/kg/injection, schedule: Q01DX005 (ip), vehicle: saline with Tween-80
[22] = dose: 25.0 mg/kg/injection, schedule: Q01DX009 (ip), vehicle: saline
[23] = dose: 50.0 mg/kg/injection, schedule: Q01DX009 (ip), vehicle: Klucel (hydroxypropylcellulose) (HPC)
[24] = dose: 100.0 mg/kg/injection, schedule: Q01DX009 (ip), vehicle: Klucel (hydroxypropylcellulose) (HPC)
[25] = dose: 50.0 mg/kg/injection, schedule: Q01DX005 (ip), vehicle: saline
[26] = dose: 100.0 mg/kg/injection, schedule: Q01DX005 (ip), vehicle: saline
[27] = dose: 200.0 mg/kg/injection, schedule: Q01DX005 (ip), vehicle: saline
[28] = dose: 200.0 mg/kg/injection, schedule: Q01DX009 (ip), vehicle: Klucel (hydroxypropylcellulose) (HPC)

Measured: T/C

CC(=O)OCC1OC(n2cc(CI)nn2)C(OC(C)=O)C(OC(C)=O)C1OC(C)=O (configuration not stated)
inactive: dose: 6.25 mg/kg/injection, schedule: Q01DX009 (ip), vehicle: distilled water + Tween-80 102 % of control and 103 % of control | [1] 103 % of control and 96 % of control | [2] 111 % of control and 115 % of control | [3] 102 % of control and 115 % of control | dose: 100.0 mg/kg/injection, schedule: Q01DX009 (ip), vehicle: distilled water + Tween-80 115 % of control

CCCCCCC(=O)/C=C/c1ccc(OC)cc1OC
inactive: [4] 94 % of control | [5] 91 % of control | [6] 91 % of control

COC(=O)c1nc(N)nc(C(=O)OC)c1C(=O)Cc1ccccc1
inactive: [7] 100 % of control | [8] 103 % of control

COc1ccc(CC2c3cc4c(cc3CCN2C)OCO4)c(C=O)c1OC (configuration not stated)
inactive: dose: 12.5 mg/kg/injection, schedule: Q01DX001 (ip), vehicle: saline + alcohol 93 % of control | dose: 25.0 mg/kg/injection, schedule: Q01DX001 (ip), vehicle: saline + alcohol 97 % of control | dose: 50.0 mg/kg/injection, schedule: Q01DX001 (ip), vehicle: saline + alcohol 99 % of control

CCOC(=O)Cc1cc2cc(=O)[nH]cc2cc1C
inactive: [1] 94 % of control | [2] 93 % of control | [3] 90 % of control | dose: 200.0 mg/kg/injection, schedule: Q01DX009 (ip), vehicle: distilled water + Tween-80 87 % of control

CCN(CC)C1=C(C)C(=O)[C@]2([Si](C)(C)C)[C@](OC)(c3ccc(C(F)(F)F)cc3)[C@]12[Si](C)(C)C
inactive: [9] 101 % of control | [10] 100 % of control | [11] 97 % of control

Cc1nc(Br)c(Br)n1C
inactive: [7] 93 % of control | [8] 88 % of control

Cc1cc(C)c2c(=O)n(-c3ccccc3C)c(=S)n(-c3ccccc3C)c2n1
inactive: [7] 100 % of control | [8] 86 % of control

O=CNCNC=O
inactive: [12] 95 % of control | [13] 90 % of control | [14] 99 % of control

Nc1ccccc1C(=O)CCc1ccccc1
inactive: [7] 100 % of control | [8] 99 % of control | [15] 97 % of control

COc1cc(OC)c(OC)cc1/C=C1/N=C(c2ccccc2)OC1=O
inactive: [4] 99 % of control | [5] 92 % of control | [6] 93 % of control

C[C@H]1C(=O)CCC2[C@]3(C)CCC4(CO)[C@@H]5CC(C)(C)C(=O)C[C@]5(C)CC[C@]4(C)C3CC[C@@]21C (some centres not stated)
inactive: dose: 7.75 mg/kg/injection, schedule: Q01DX005 (ip), vehicle: Klucel (hydroxypropylcellulose) (HPC) 98 % of control | dose: 15.5 mg/kg/injection, schedule: Q01DX005 (ip), vehicle: Klucel (hydroxypropylcellulose) (HPC) 91 % of control | dose: 31.0 mg/kg/injection, schedule: Q01DX005 (ip), vehicle: Klucel (hydroxypropylcellulose) (HPC) 89 % of control

CC(C)(F)c1nc2ncncc2[nH]c1=O
inactive: [9] 103 % of control | [10] 103 % of control | [11] 93 % of control

O=[N+]([O-])c1ccc(-c2noc(-c3cccs3)n2)cc1
inactive: dose: 60.0 mg/kg/injection, schedule: Q01DX005 (ip), vehicle: Klucel (hydroxypropylcellulose) (HPC) 95 % of control | dose: 120.0 mg/kg/injection, schedule: Q01DX005 (ip), vehicle: Klucel (hydroxypropylcellulose) (HPC) 101 % of control | dose: 240.0 mg/kg/injection, schedule: Q01DX005 (ip), vehicle: Klucel (hydroxypropylcellulose) (HPC) 97 % of control

CCOC(=O)C1(Br)CC2(C1)CC(Br)(C(=O)OCC)C2 (configuration not stated)
inactive: [16] 101 % of control | [17] 103 % of control | [18] 100 % of control

O=C(OCCN(CCOC(=O)c1ccc([N+](=O)[O-])cc1)c1c[nH]c(=O)[nH]c1=O)c1ccc([N+](=O)[O-])cc1
inactive: [19] 96 % of control | [20] 104 % of control | [21] 96 % of control

COc1ccc(CSC(=S)Nc2ccc(Cl)c(C(F)(F)F)c2)cc1
inactive: dose: 25.0 mg/kg/injection, schedule: Q01DX009 (ip), vehicle: saline with Tween-80 95 % of control | [22] 104 % of control | [4] 98 % of control | [12] 109 % of control | dose: 50.0 mg/kg/injection, schedule: Q01DX009 (ip), vehicle: suspension in saline 106 % of control | [5] 100 % of control | [13] 104 % of control | dose: 100.0 mg/kg/injection, schedule: Q01DX009 (ip), vehicle: suspension in saline 124 % of control | [6] 91 % of control | dose: 200.0 mg/kg/injection, schedule: Q01DX009 (ip), vehicle: suspension in saline 124 % of control

c1ccc2c(C3CO3)c3ccccc3c(C3CO3)c2c1 (configuration not stated)
inactive: [12] 99 % of control | [13] 116 % of control | [14] 116 % of control

CC(=O)NC1C(OC(C)=O)OC(C[Se][As](C)C)C(OC(C)=O)C1OC(C)=O (configuration not stated)
inactive: [23] 105 % of control | [24] 110 % of control

O=C1Cc2csc3nc(=O)cc(n23)N1
inactive: [25] 94 % of control | [26] 97 % of control | [27] 88 % of control

CC(C)CC(NC(=O)C(C)N)C(N)=O (configuration not stated)
inactive: [25] 99 % of control | [26] 103 % of control | [27] 96 % of control

N#Cc1c(=O)[nH]nc2c3ccccc3c3ccccc3c12
inactive: [16] 92 % of control | [17] 95 % of control | [18] 96 % of control

O=C1CSc2nc3ccc(Br)cc3c(=O)n21
inactive: [19] 100 % of control | [20] 95 % of control | [21] 111 % of control

COC(=O)N(c1ccccc1)c1ccccn1
inactive: [7] 106 % of control | [8] 97 % of control | [15] 100 % of control

COC1CC(=O)C2(C)C3CCC4(C)C(C(C)C5CC(C)=C(CO)C(=O)O5)CCC4C3CC3OC32C1O (configuration not stated)
inactive: dose: 10.12 mg/kg/injection, schedule: Q01DX009 (ip), vehicle: saline + alcohol 105 % of control | dose: 20.25 mg/kg/injection, schedule: Q01DX009 (ip), vehicle: saline + alcohol 96 % of control | dose: 40.5 mg/kg/injection, schedule: Q01DX009 (ip), vehicle: saline + alcohol 94 % of control

CC1C(=O)C23CC1CCC2C12COC(=O)C1C(C)(C)C(=O)CC2OC3=O (configuration not stated)
inactive: dose: 50.0 mg/kg/injection, schedule: Q04DX002 (ip), vehicle: saline with Tween-80 105 % of control | [16] 93 % of control | [17] 94 % of control

CCN(CC)CC(O)c1c(-c2ccccc2)c(-c2ccccc2)c2n1CCC2 (configuration not stated)
inactive: [23] 103 % of control | [24] 106 % of control | [28] 109 % of control

Cc1ccc(S(=O)(=O)N(Cc2ccc(Cl)cc2)S(=O)(=O)c2ccc(C)cc2)cc1
inactive: [22] 110 % of control | [12] 108 % of control | [13] 100 % of control | [28] 100 % of control

N#C/C(=C\Nc1ccccn1)C(=O)c1ccccc1
inactive: [7] 91 % of control | [8] 91 % of control | [15] 91 % of control

CSC(=S)c1ccc(NSc2ccccc2[N+](=O)[O-])cc1
inactive: dose: 100.0 mg/kg/injection, schedule: Q04DX003 (ip), vehicle: saline 113 % of control | dose: 200.0 mg/kg/injection, schedule: Q04DX003 (ip), vehicle: saline 110 % of control | dose: 400.0 mg/kg/injection, schedule: Q04DX003 (ip), vehicle: saline 93 % of control

CCC12CCCN3CCc4c(n(c5ccc(Br)cc45)C(=O)CC1)C32 (configuration not stated)
inactive: dose: 12.5 mg/kg/injection, schedule: Q01DX005 (ip), vehicle: saline with Tween-80 99 % of control | dose: 25.0 mg/kg/injection, schedule: Q01DX005 (ip), vehicle: saline with Tween-80 90 % of control | [19] 88 % of control and 91 % of control

O=C1Cc2ccccc2N1C(=O)c1cccc(Br)c1
inactive: dose: 100.0 mg/kg/injection, schedule: Q01DX001 (ip), vehicle: Klucel (hydroxypropylcellulose) (HPC) 98 % of control | dose: 200.0 mg/kg/injection, schedule: Q01DX001 (ip), vehicle: Klucel (hydroxypropylcellulose) (HPC) 95 % of control
